Assay results as given in ChEMBL document CHEMBL3627664, “Towards the evaluation in an animal disease model: Fluorinated 17β-HSD1 inhibitors showing strong activity towards both the human and the rat enzyme” (Eur J Med Chem, 2015).

These compounds were tested against T1, 17-beta-hydroxysteroid dehydrogenase type 1 (Homo sapiens, UniProt P14061).
T1 sequence (P14061 whole entry): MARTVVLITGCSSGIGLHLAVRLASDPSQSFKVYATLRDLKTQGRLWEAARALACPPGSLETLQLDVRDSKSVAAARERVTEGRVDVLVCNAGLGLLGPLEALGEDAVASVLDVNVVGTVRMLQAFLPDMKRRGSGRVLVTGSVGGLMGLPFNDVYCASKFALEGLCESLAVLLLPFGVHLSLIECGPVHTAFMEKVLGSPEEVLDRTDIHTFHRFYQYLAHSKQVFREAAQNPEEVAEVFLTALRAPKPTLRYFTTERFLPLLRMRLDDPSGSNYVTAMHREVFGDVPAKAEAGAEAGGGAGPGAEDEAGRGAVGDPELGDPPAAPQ

Row | Compound | IC50 [nM]
1 | O=C(c1ccc(F)c(O)c1)c1cc2cc(O)ccc2s1 | 89
2 | O=C(c1cccc(O)c1)c1ccc(-c2cccc(O)c2)s1 | 69
3 | N#Cc1ccc(S(=O)(=O)Nc2cccc(-c3ccc(C(=O)c4cccc(O)c4)s3)c2)cc1 | 56
4 | Cc1ccc(C(=O)c2ccc(-c3cccc(O)c3)s2)cc1O | 46
5 | O=C(c1ccc(C(F)(F)F)c(O)c1)c1ccc(-c2cccc(O)c2)s1 | 38
6 | O=C(c1cccc(O)c1)c1ccc(-c2ccc(NS(=O)(=O)c3ccc(Br)cc3OC(F)(F)F)cc2)s1 | 169

The next compounds have a lower IC50 than those just listed; values first:

Row | IC50 [nM] | Compound
7 | 35 | COc1cccc(S(=O)(=O)Nc2cccc(-c3ccc(C(=O)c4cccc(O)c4)s3)c2)c1
8 | 33 | O=C(Nc1cccc(-c2ccc(C(=O)c3cccc(O)c3)s2)c1)c1cccc(O)c1
9 | 23 | N#Cc1cccc(S(=O)(=O)Nc2cccc(-c3ccc(C(=O)c4cccc(O)c4)s3)c2)c1
10 | 21 | N#Cc1cccc(S(=O)(=O)Nc2cccc(-c3c(O)ccc4cc(-c5cccc(O)c5)ccc34)c2)c1
11 | 17 | Cc1ccccc1S(=O)(=O)Nc1cccc(-c2ccc(C(=O)c3cccc(O)c3)s2)c1
12 | 12 | O=C(c1cccc(O)c1)c1cc2ccc(O)cc2s1
13 | 12 | Cc1ccc(S(=O)(=O)Nc2cccc(-c3ccc(C(=O)c4cccc(O)c4)s3)c2)cc1
